From the NIST ThermoML archive (doi:10.1016/j.tca.2018.11.018)

Assay: xn = mol fraction of the nth substance listed
Details: 100 kPa, Liquid; for mass density: Vibrating tube method; for viscosity: Falling or rolling sphere viscometry

CC[N+]1(C)CCCCC1.[Br-] [N-ethyl-N-methylpiperidinium bromide] + O
Details	mass density [kg/m3]	viscosity [mPa·s]
323.15 K, x1 = 0.02	1031.6	–
323.15 K, x1 = 0.046	1075.9	–
323.15 K, x1 = 0.065	1102.9	–
323.15 K, x1 = 0.085	1126.3	–
323.15 K, x1 = 0.11	1151.5	–
323.15 K, x1 = 0.14	1175.5	–
323.15 K, x1 = 0.18	1200.6	–
323.15 K, x1 = 0.221	1220.4	–
323.15 K, x1 = 0.27	1237.9	–
323.15 K, x1 = 0.321	1251.8	–
328.15 K, x1 = 0.02	1029	0.709
328.15 K, x1 = 0.046	1073	1.063
328.15 K, x1 = 0.065	1099.9	1.378
328.15 K, x1 = 0.085	1123.1	1.83
328.15 K, x1 = 0.11	1148.1	2.563
328.15 K, x1 = 0.14	1172.1	4.087
328.15 K, x1 = 0.18	1197	6.616
328.15 K, x1 = 0.221	1216.9	10.15
328.15 K, x1 = 0.27	1234.4	16.44
328.15 K, x1 = 0.321	1248.3	26.76
333.15 K, x1 = 0.02	1026.3	0.656
333.15 K, x1 = 0.046	1070.2	0.976
333.15 K, x1 = 0.065	1096.7	1.249
333.15 K, x1 = 0.085	1119.9	1.65
333.15 K, x1 = 0.11	1144.7	2.285
333.15 K, x1 = 0.14	1168.6	3.555
333.15 K, x1 = 0.18	1193.5	5.691
333.15 K, x1 = 0.221	1213.4	8.658
333.15 K, x1 = 0.27	1230.9	13.81
333.15 K, x1 = 0.321	1244.9	21.95
338.15 K, x1 = 0.02	1023.5	0.616
338.15 K, x1 = 0.046	1067.1	0.9
338.15 K, x1 = 0.065	1093.5	1.142
338.15 K, x1 = 0.085	1116.9	1.495
338.15 K, x1 = 0.11	1141.4	2.046
338.15 K, x1 = 0.14	1165.1	3.13
338.15 K, x1 = 0.18	1189.9	4.925
338.15 K, x1 = 0.221	1209.8	7.418
338.15 K, x1 = 0.27	1227.4	11.66
338.15 K, x1 = 0.321	1241.4	18.17
343.15 K, x1 = 0.02	1020.4	0.579
343.15 K, x1 = 0.046	1063.9	0.835
343.15 K, x1 = 0.065	1090.3	1.05
343.15 K, x1 = 0.085	1113.8	1.363
343.15 K, x1 = 0.11	1137.9	1.845
343.15 K, x1 = 0.14	1161.5	2.616
343.15 K, x1 = 0.18	1186.3	4.343
343.15 K, x1 = 0.221	1206.2	6.433
343.15 K, x1 = 0.27	1223.9	10.03
343.15 K, x1 = 0.321	1238	15.35
348.15 K, x1 = 0.02	1016.6	0.548
348.15 K, x1 = 0.046	1060.6	0.778
348.15 K, x1 = 0.065	1087	0.967
348.15 K, x1 = 0.085	1110.3	1.247
348.15 K, x1 = 0.11	1134.3	1.67
348.15 K, x1 = 0.14	1157.9	2.352
348.15 K, x1 = 0.18	1182.7	3.798
348.15 K, x1 = 0.221	1202.6	5.613
348.15 K, x1 = 0.27	1220.3	8.668
348.15 K, x1 = 0.321	1234.5	13.11
